The test concerns P388 leukemia ip, CD2F1 mice, survival T/C. The test can be described thus: NCI In Vivo Anticancer Drug Screen. Data for tumor model P388 Leukemia (intraperitoneal) in CD2F1 (CDF1) mice. The conditions noted are these: endpoint: median survival time, higher = longer survival. In a few lines: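 Mice carrying the transplanted tumor received test compound or vehicle. Survival was recorded in each group, and the value is the treated-group measurement divided by that of the vehicle-treated control group.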

Setting [1] is: dose: 50.0 mg/kg/injection, schedule: Q01DX009 (ip), vehicle: saline.
The mark [2] stands for this setting: dose: 60.0 mg/kg/injection, schedule: Q01DX005 (ip), vehicle: saline with Tween-80.
The mark [3] stands for this setting: dose: 120.0 mg/kg/injection, schedule: Q01DX005 (ip), vehicle: saline with Tween-80.
Setting [4] is: dose: 240.0 mg/kg/injection, schedule: Q01DX005 (ip), vehicle: saline with Tween-80.
The mark [5] stands for this setting: dose: 100.0 mg/kg/injection, schedule: Q04DX003 (ip), vehicle: Klucel (hydroxypropylcellulose) (HPC).
[6] abbreviates: dose: 200.0 mg/kg/injection, schedule: Q04DX003 (ip), vehicle: Klucel (hydroxypropylcellulose) (HPC).
The mark [7] stands for this setting: dose: 50.0 mg/kg/injection, schedule: Q01DX005 (ip), vehicle: Klucel (hydroxypropylcellulose) (HPC).
Where [8] appears, read: dose: 100.0 mg/kg/injection, schedule: Q01DX005 (ip), vehicle: Klucel (hydroxypropylcellulose) (HPC).
Where [9] appears, read: dose: 200.0 mg/kg/injection, schedule: Q01DX005 (ip), vehicle: Klucel (hydroxypropylcellulose) (HPC).
[10] abbreviates: dose: 50.0 mg/kg/injection, schedule: Q01DX009 (ip), vehicle: saline with Tween-80.
Setting [11] is: dose: 100.0 mg/kg/injection, schedule: Q01DX009 (ip), vehicle: saline with Tween-80.
The mark [12] stands for this setting: dose: 200.0 mg/kg/injection, schedule: Q01DX009 (ip), vehicle: saline with Tween-80.
Where [13] appears, read: dose: 25.0 mg/kg/injection, schedule: Q01DX005 (ip), vehicle: distilled water + Tween-80.
Where [14] appears, read: dose: 50.0 mg/kg/injection, schedule: Q01DX005 (ip), vehicle: distilled water + Tween-80.
The mark [15] stands for this setting: dose: 100.0 mg/kg/injection, schedule: Q01DX005 (ip), vehicle: distilled water + Tween-80.
Setting [16] is: dose: 200.0 mg/kg/injection, schedule: Q01DX005 (ip), vehicle: distilled water + Tween-80.

In PubChem BioAssay AID330 (DTP/NCI, 2004) one finds T/C data, which are given here for 20 compounds.

Several values for one entry are separate records, joined by “and”; a condition that tells them apart may be missing. Equal entries are not always repeated. Inconclusive results and toxic doses are left out.

For the compound `COc1ccccc1[N+]([O-])=NC#N`, the T/C (dose: 6.25 mg/kg/injection, schedule: Q04DX003 (ip), vehicle: Klucel (hydroxypropylcellulose) (HPC)) is 107 % of control; the T/C (dose: 12.5 mg/kg/injection, schedule: Q04DX003 (ip), vehicle: Klucel (hydroxypropylcellulose) (HPC)) is 111 % of control; the T/C (dose: 25.0 mg/kg/injection, schedule: Q04DX003 (ip), vehicle: Klucel (hydroxypropylcellulose) (HPC)) is 99 % of control.

For `O=C1c2ccccc2N(C(=O)CN2CCOCC2)CN1c1ccccc1`, the T/C was 98 % of control under setting [1]; 100 % of control (dose: 100.0 mg/kg/injection, schedule: Q01DX009 (ip), vehicle: saline); 98 % of control (dose: 200.0 mg/kg/injection, schedule: Q01DX009 (ip), vehicle: saline).

As to `COC(=O)CCC(=O)Nc1ccccc1C(F)(F)F`, the T/C by setting is: under setting [2], 102 % of control; under setting [3], 108 % of control; under setting [4], 107 % of control.

With `COc1ccc(/C(=N/N)c2ccccc2)cc1`, the T/C was 100 % of control under setting [5] and 114 % of control under setting [6].

`CC(C)C(NC(=O)OCc1ccccc1)C(=O)N(C(=O)NC1CCCCC1)C1CCCCC1` (stereo unspecified): the T/C by setting is: under setting [7], 100 % of control; under setting [8], 95 % of control; under setting [9], 98 % of control.

As for `CCOC(=O)c1cc(-c2ccccn2)c(=O)n2ccccc12`, the T/C is 108 % of control (dose: 12.5 mg/kg/injection, schedule: Q01DX009 (ip), vehicle: saline); 107 % of control (dose: 25.0 mg/kg/injection, schedule: Q01DX009 (ip), vehicle: saline); 100 % of control under setting [10]; 100 % of control under setting [1].

On to `O=C(O)/C(Cl)=C(/Cl)C(=O)C(Cl)(Cl)Cl`, for which the T/C runs as follows: (dose: 3.13 mg/kg/injection, schedule: Q01DX009 (ip), vehicle: distilled water + Tween-80) 108 % of control; (dose: 25.0 mg/kg/injection, schedule: Q01DX009 (ip), vehicle: distilled water + Tween-80) 155 % of control; (dose: 50.0 mg/kg/injection, schedule: Q01DX009 (ip), vehicle: distilled water + Tween-80) 155 % of control.

As to `COC1/C=C/OC2(C)Oc3c(C)c(O)c4c(O)c(c(/C=N/N(C)c5ncnc6c5ncn6C5OC(CO)C(O)C5O)c(O)c4c3C2=O)NC(=O)C(C)=C/C=C/C(C)C(O)C(C)C(O)C(C)C(OC(C)=O)C1C` (stereo unspecified), the T/C under setting [10] was 100 % of control, the T/C under setting [11] was 102 % of control and the T/C under setting [12] is 102 % of control.

In the case of `CN(C)C(=S)SSC(=S)N(C)C`, the T/C by setting is: (dose: 12.5 mg/kg/injection, schedule: Q01DX009 (ip), vehicle: Klucel (hydroxypropylcellulose) (HPC)) 119 % of control; (dose: 25.0 mg/kg/injection, schedule: Q01DX009 (ip), vehicle: Klucel (hydroxypropylcellulose) (HPC)) 115 % of control; (dose: 50.0 mg/kg/injection, schedule: Q01DX009 (ip), vehicle: Klucel (hydroxypropylcellulose) (HPC)) 101 % of control and 117 % of control; (dose: 100.0 mg/kg/injection, schedule: Q01DX009 (ip), vehicle: Klucel (hydroxypropylcellulose) (HPC)) 118 % of control and 90 % of control.

`O=NN(CCCl)C(=O)NC1CCCCC1`: the T/C is 118 % of control (dose: 1.0 mg/kg/injection, schedule: Q01DX009 (ip), vehicle: saline with Tween-80); 168 % of control (dose: 4.0 mg/kg/injection, schedule: Q01DX009 (ip), vehicle: saline with Tween-80); 204 % of control (dose: 7.2 mg/kg/injection, schedule: Q04DX003 (ip), vehicle: saline + alcohol); 218 % of control and 240 % of control (dose: 8.0 mg/kg/injection, schedule: Q01DX009 (ip), vehicle: saline with Tween-80); 154 % of control (dose: 12.0 mg/kg/injection, schedule: Q04DX003 (ip), vehicle: carboxymethylcellulose (CMC)); 339 % of control (dose: 12.0 mg/kg/injection, schedule: Q04DX003 (ip), vehicle: saline + alcohol). The T/C reads like this: (dose: 16.0 mg/kg/injection, schedule: Q01DX009 (ip), vehicle: saline with Tween-80) 272 % of control; (dose: 18.0 mg/kg/injection, schedule: Q04DX003 (ip), vehicle: carboxymethylcellulose (CMC)) 190 % of control and 191 % of control; (dose: 20.0 mg/kg/injection, schedule: Q04DX003 (ip), vehicle: saline + alcohol) 412 % of control; (dose: 27.0 mg/kg/injection, schedule: Q04DX003 (ip), vehicle: carboxymethylcellulose (CMC)) 227 % of control and 243 % of control; (dose: 33.3 mg/kg/injection, schedule: Q04DX003 (ip), vehicle: saline + alcohol) 119 % of control; (dose: 40.0 mg/kg/injection, schedule: Q04DX003 (ip), vehicle: carboxymethylcellulose (CMC)) 304 % of control and 538 % of control. In addition, the T/C was 250 % of control and 265 % of control (dose: 64.0 mg/kg/injection, schedule: Q01DX001 (ip), vehicle: saline + alcohol); 168 % of control (dose: 128.0 mg/kg/injection, schedule: Q01DX001 (ip), vehicle: saline + alcohol).

`O=C1C=CC(=O)c2c1c(O)c1ccccc1c2Cl`: the T/C by setting is: (dose: 6.25 mg/kg/injection, schedule: Q01DX005 (ip), vehicle: saline) 102 % of control; (dose: 12.5 mg/kg/injection, schedule: Q01DX005 (ip), vehicle: saline) 95 % of control; (dose: 25.0 mg/kg/injection, schedule: Q01DX005 (ip), vehicle: saline) 93 % of control.

As to `C/C=C(/C)C(=O)OC1CC(C)=CC(OC(=O)/C(C)=C\C)[C@]2(C)C1[C@](O)(C(C)C)C[C@H]2O` (stereo partly specified), the T/C is 106 % of control (dose: 2.0 mg/kg/injection, schedule: Q01DX005 (ip), vehicle: Klucel (hydroxypropylcellulose) (HPC)); 96 % of control (dose: 4.0 mg/kg/injection, schedule: Q01DX005 (ip), vehicle: Klucel (hydroxypropylcellulose) (HPC)); 99 % of control (dose: 8.0 mg/kg/injection, schedule: Q01DX005 (ip), vehicle: Klucel (hydroxypropylcellulose) (HPC)); 99 % of control (dose: 16.0 mg/kg/injection, schedule: Q01DX005 (ip), vehicle: Klucel (hydroxypropylcellulose) (HPC)).

For `COc1cc(NC(=O)CNC(=O)CNC(=O)C(N)CC(C)C)cc2ccccc12` (stereo unspecified), the T/C is 100 % of control under setting [7], 96 % of control under setting [8] and 100 % of control under setting [9].

Consider `CCOC(=O)c1c(C)c(-c2ccccc2)c(-c2ccccc2)c(C)c1-c1ccccc1`, for which the T/C under setting [10] is 97 % of control, the T/C under setting [11] was 100 % of control and the T/C under setting [12] is 92 % of control.

Consider `Cc1cccc2c(NCCCCCCNc3cc(C)[n+](C)c4c(C)cccc34)cc(C)[n+](C)c12`, for which the T/C runs as follows: (dose: 3.12 mg/kg/injection, schedule: Q01DX005 (ip), vehicle: suspension in saline) 112 % of control; (dose: 6.25 mg/kg/injection, schedule: Q01DX005 (ip), vehicle: suspension in saline) 106 % of control; (dose: 12.5 mg/kg/injection, schedule: Q01DX005 (ip), vehicle: suspension in saline) 112 % of control.

Regarding `CC1(Cl)C(=O)OC2CCC(O)C(O)C21` (stereo unspecified), the T/C was 101 % of control under setting [5]; 102 % of control under setting [6]; 106 % of control (dose: 400.0 mg/kg/injection, schedule: Q04DX003 (ip), vehicle: Klucel (hydroxypropylcellulose) (HPC)).

Turning to `O=C(CCN1C(=O)NC(c2ccccc2)(c2ccccc2)C1=O)NCCN1CCOCC1`, the T/C reads like this: under setting [2], 96 % of control; under setting [3], 100 % of control; under setting [4], 102 % of control.

With `CNC(=O)OCc1nnn(-c2ccccc2)c1COC(=O)NC`, the T/C runs as follows: (dose: 12.5 mg/kg/injection, schedule: Q01DX005 (ip), vehicle: distilled water + Tween-80) 98 % of control; under setting [13], 98 % of control; under setting [14], 96 % of control; under setting [15], 91 % of control; under setting [16], 88 % of control.

Regarding `COc1cc2cc3c(-c4ccccc4)noc3nc2cc1OC`, the T/C runs as follows: under setting [2], 106 % of control; under setting [3], 93 % of control; under setting [4], 90 % of control.

Take `O=c1c2ccccc2sc2c1c(N(CCCl)CCCl)cc1ccccc12`: the T/C is, setting by setting: under setting [13], 92 % of control; under setting [14], 94 % of control; under setting [15], 94 % of control; under setting [16], 95 % of control.
